Series [1] can be described thus: Pigment dispersion: wet point and flow point. The conditions noted are these: for Fp (flow point), amount of ester oil needed / Wp (wet point), amount of ester oil needed: grams per 100 g of pigment, Black Iron Oxide CI77499. Type of series: physicochemical. From the text:
Black Iron Oxide particles (CI77499, commercially available as YPC335200 from Yipin) were dispersed in each of the ester oils of the present invention and in ester oil commonly used as cosmetic ingredients. Each sample of powder particles was wetted by the dropwise addition of one ester oil and then vigorously blended using a spatula until the wet point and the flow point were reached.
The wet point is defined as the minimum volume of dispersant solution to produce a soft coherent mass; the further minimum addition of dispersant solution to produce flow or falling off of the homogeneous mass from the vertical blade of a horizontally held spatula determines the flow point.
The amounts of dispersant solution (i.e. ester oil) needed to reach the wet point (Wp) and the flow point (Fp) were recorded and reported in the table below, expressed in grams per 100 g of pigment.

A short description of series [2]: UV filters dispersion: dispersibility of a solid UV filter in ester oils. Type of series: physicochemical. The arrangement: key to Filters dispersion t0 1% / Filters dispersion t0 10% / Filters dispersion t24 1% / Filters dispersion t24 10%: D=homogeneous dispersion; S=sediment deposit. The conditions noted are these: for Filters dispersion t0 1%: 1% TiO2, storage 0 hours at 25° C.; for Filters dispersion t24 1%: 1% TiO2, storage 24 hours at 25° C.; for Filters dispersion t0 10%: 10% TiO2, storage 0 hours at 25° C.; for Filters dispersion t24 10%: 10% TiO2, storage 24 hours at 25° C.; for dispersion of Titania: in words, compared with reference solvents. The procedure:
The dispersibility of a solid UV filter in different ester oils was tested using Titania (TiO2, commercially available as Titanio Biossido Anatasio from A.C.E.F.). Various ratios of filter/ester (1% and 10% TiO2) were prepared under stirring at 70° C. for 30 minutes. The dispersions were then observed after a storage period of 0 hours (t0) and 24 hours (t24) at ambient temperature (25° C.) to check for the formation of any sediment deposit. Results for each ester are shown in the table below (D=homogeneous dispersion; S=sediment deposit).

SMILES strings stand for the structures.

For `CCCCCCCCC(=O)OCC(COC(=O)CCCCCCCC)OC(=O)CCCCCCCC` [Glycerol tripelargonate], in series [1] (from the minimum difference between Fp and Wp), the “less solvent required in the final composition” value is “about 30%”. In series [1], the “Fp (flow point), amount of ester oil needed” value (from here on “Fp (flow point), amount”) turned out to be 100.00 g and the “Wp (wet point), amount of ester oil needed” value (shortened to “Wp (wet point), amount”) is reported as 60.00 g. Also, the dispersion properties entry in series [1] (in words, compared with commonly used cosmetic ingredients) was “even better than those of Caprylic/Capric Triglyceride”. Besides, in series [2], the “Filters dispersion t0 1%” value is recorded as “D”, the “Filters dispersion t24 1%” value is “D”, the “Filters dispersion t0 10%” value is reported as “D” and the “Filters dispersion t24 10%” value is “S/D”. Further, in series [2], the “dispersion of Titania” value is on record as “even better”.

Regarding `CC(C)CCCCCCOC(=O)CCCCCC(C)C` [Isononyl Isononanoate, reference compound], in series [1], the “Fp (flow point), amount” value came out at 145.00 g and the “Wp (wet point), amount” value was found to be 50.00 g. For the same molecule, in series [2], the “Filters dispersion t0 1%” value is “D”, the “Filters dispersion t24 1%” value is reported as “S”, the “Filters dispersion t0 10%” value was “D” and the “Filters dispersion t24 10%” value is on record as “S”.

Regarding `CCCCCCCCC(=O)OCC(C)(C)COC(=O)CCCCCCCC` [Neopentyl glycol dipelargonate], in series [1], the “Fp (flow point), amount” value amounted to 166.00 g and the “Wp (wet point), amount” value is given as 61.00 g. Moreover, in series [2], the “Filters dispersion t0 1%” value was “D”, the “Filters dispersion t24 1%” value is on record as “S/D”, the “Filters dispersion t0 10%” value is recorded as “D” and the “Filters dispersion t24 10%” value is given as “S/D”.

For `CCCCCCCCC(=O)OCC(COC(=O)CCCCCCCC)(COC(=O)CCCCCCCC)COC(=O)CCCCCCCC` [Pentaerythritol tetrapelargonate], in series [1], the “Fp (flow point), amount” value stood at 132.00 g and the “Wp (wet point), amount” value is given as 62.00 g. In series [2], the “Filters dispersion t0 1%” value is given as “D”, the “Filters dispersion t24 1%” value is on record as “D”, the “Filters dispersion t0 10%” value is “D” and the “Filters dispersion t24 10%” value is listed as “D”. Besides, in series [2], the “dispersion of Titania” value is given as “even better”.

For the origin of these results see patent US12083202B2, “Lipophilic cosmetic compositions containing pelargonic acid esters” (Novamont S.p.A., priority 2015, dated 2024).
